Results: ChEMBL document CHEMBL1201862, “PubChem BioAssay data set” (2004)
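Cells were grown in 96-well plates and exposed to each compound for 48 hours at five concentrations; endpoints were interpolated linearly between bracketing concentrations, or set to the highest concentration if not reached. Here, GI50 denotes the concentration required for 50% inhibition of growth.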 Activity calls are given as the source filed them. Cut-off read from the data, not from the text of the source: active = GI50 up to about 1.1 µM and inactive = higher.

Key:
Experiment in all cases: NCI tumour cell line growth inhibition, 48 h
[1] = system: DMS-273
[2] = system: M19-MEL
[3] = system: HOP-18
[4] = system: XF498
[5] = system: DLD-1
[6] = system: LXFL 529
[7] = system: SNB-78
[8] = system: DMS-114
[9] = system: RXF 631

Row | Structure (SMILES) | GI50 [1] | GI50 [2] | GI50 [3] | GI50 [4] | GI50 [5] | GI50 [6] | GI50 [7] | GI50 [8] | GI50 [9]
1 | CCOC(=O)C(c1ccsc1)P(=O)(OCC)OCC (centres undefined) | 13.2 µM (inactive) | 11.2 µM (inactive) | 28.3 µM (inactive) | 20.9 µM (inactive) | 12.8 µM (inactive) | 12 µM (inactive) | 12.6 µM (inactive) | 13.8 µM (inactive) | 
2 | COC(=O)CCC(=O)NC1C2CC3CC(C2)CC1C3 (centres undefined) | > 100 µM (inactive) | > 100 µM (inactive) | > 100 µM (inactive) | > 100 µM (inactive) | > 100 µM (inactive) | > 100 µM (inactive) |  | > 100 µM (inactive) | > 100 µM (inactive)
3 | COc1ncnc2c(NC3OC(CO)C(O)C3O)ncnc12 (centres undefined) | 0.152 µM (active) |  | < 0.01 µM (active) | 0.902 µM (active) | 0.306 µM (active) | 0.505 µM (active) | 0.668 µM (active) | 0.213 µM (active) | 0.3 µM (active)
4 | Clc1ccc(-c2nnc3c4nnc(-c5ccc(Cl)cc5Cl)n4c4ccccc4n23)c(Cl)c1 | > 100 µM (inactive) | > 100 µM (inactive) |  | > 100 µM (inactive) | > 100 µM (inactive) | > 100 µM (inactive) | 34.4 µM (inactive) | > 100 µM (inactive) | 
5 | Cc1c2ccccc2cc2ccc3oc([N+](=O)[O-])cc3c12 | > 100 µM (inactive) | > 100 µM (inactive) | 2 µM (inactive) | > 100 µM (inactive) | > 100 µM (inactive) | > 100 µM (inactive) | > 100 µM (inactive) | > 100 µM (inactive) | 
6 | CC(C)=CCC/C(C)=C/Cc1c(O)c(C)cc2c1[nH]c1cc(O)ccc12 | > 25 µM (inactive) | > 25 µM (inactive) |  |  | > 25 µM (inactive) | > 25 µM (inactive) | > 25 µM (inactive) | > 25 µM (inactive) | 
7 | N#CC(C(=O)C(=O)Nc1ccc(Cl)cc1)c1ccccc1 (centres undefined) | > 100 µM (inactive) | > 100 µM (inactive) | > 100 µM (inactive) |  | > 100 µM (inactive) | > 100 µM (inactive) | > 100 µM (inactive) | > 100 µM (inactive) | > 100 µM (inactive)
8 | COc1ccc(/C=C2\N=C(c3ccccc3)OC2=O)c(OCc2ccccc2)c1 | 32.3 µM (inactive) | 38.3 µM (inactive) | > 100 µM (inactive) |  | 17.7 µM (inactive) | 38.2 µM (inactive) |  | 31.1 µM (inactive) | 
9 | O=C(Cc1nc2ccccc2o1)C(=O)Nc1cccc(Cl)c1 |  | > 100 µM (inactive) | > 100 µM (inactive) | > 100 µM (inactive) | > 100 µM (inactive) | > 100 µM (inactive) | > 100 µM (inactive) | > 100 µM (inactive) | 
10 | CN(C)CCCn1cnc2ncccc2c1=O | > 100 µM (inactive) | > 100 µM (inactive) |  | > 100 µM (inactive) | > 100 µM (inactive) | > 100 µM (inactive) | > 100 µM (inactive) | 48.5 µM (inactive) | 
11 | CC1(C)CC(=O)C(/C(=N/NC(=S)NN)C(=O)Nc2nc3ccc([N+](=O)[O-])cc3s2)C(=O)C1 |  | > 100 µM (inactive) | 76.7 µM (inactive) | > 100 µM (inactive) | > 100 µM (inactive) | > 100 µM (inactive) | > 100 µM (inactive) | > 100 µM (inactive) | 
12 | CC(Oc1ccc(OCC2CCCCC2)cc1)C(N)=O (centres undefined) | > 100 µM (inactive) | > 100 µM (inactive) | > 100 µM (inactive) | > 100 µM (inactive) | > 100 µM (inactive) | > 100 µM (inactive) | > 100 µM (inactive) | 73.6 µM (inactive) | 
13 | O=C(C/C(=N\NC(=O)C[n+]1ccccc1)C(=O)Nc1nc2ccc([N+](=O)[O-])cc2s1)CC(c1ccccc1)c1c(O)c2ccccc2oc1=O (centres undefined) |  | > 100 µM (inactive) |  |  | > 100 µM (inactive) |  |  | > 100 µM (inactive) | 
14 | CC1=C(C(=O)Nc2cc(F)c(F)cc2F)C(c2ccc([N+](=O)[O-])cc2)C(C(=O)Nc2cc(F)c(F)cc2F)=C(C)N1 |  | 57.7 µM (inactive) |  |  | 30.5 µM (inactive) | 39.7 µM (inactive) | 26.1 µM (inactive) | 15.3 µM (inactive) | 
15 | Cc1ccc(C(=O)CC2(O)C(=O)Nc3c(C)cc(Cl)cc32)cc1 (centres undefined) | > 100 µM (inactive) |  | > 100 µM (inactive) | > 100 µM (inactive) | > 100 µM (inactive) | > 100 µM (inactive) | > 100 µM (inactive) | 52.1 µM (inactive) | > 100 µM (inactive)
16 | O=C1CCC(=O)C12CCc1ccccc12 | > 100 µM (inactive) | > 100 µM (inactive) | > 100 µM (inactive) | > 100 µM (inactive) | > 100 µM (inactive) | > 100 µM (inactive) |  | > 100 µM (inactive) | > 100 µM (inactive)
17 | CCOC(=O)C(Cc1c(C=O)[nH]c2ccccc12)(NC(=O)c1ccccc1)C(=O)OCC |  | 16 µM (inactive) | > 10 µM (inactive) | 16.4 µM (inactive) | 7.93 µM (inactive) |  |  | 19.8 µM (inactive) | 
18 | O=C(/C=C/c1ccc(O)c(O)c1)OC1C[C@@](O)(C(=O)O)C[C@@H](O)[C@H]1OC(=O)/C=C/c1ccc(O)c(O)c1 (some centres undefined) | > 100 µM (inactive) | > 100 µM (inactive) | > 100 µM (inactive) | > 100 µM (inactive) | > 100 µM (inactive) | > 100 µM (inactive) | > 100 µM (inactive) | > 100 µM (inactive) | 
19 | COC(=O)C1=Cc2cc3c(cc2[C@H](c2ccc4c(c2)OCO4)C1C(=O)OC)OCO3 (some centres undefined) | > 100 µM (inactive) | > 100 µM (inactive) | > 100 µM (inactive) | > 100 µM (inactive) | 54.5 µM (inactive) | > 100 µM (inactive) | > 100 µM (inactive) | > 100 µM (inactive) | 
20 | Cc1c[nH]c2c(O)cc3c(c12)[C@H](CCl)CN3C(=O)c1cc2cc(NC(=O)Nc3ccc4[nH]c(C(=O)N5C[C@@H](CCl)c6c5cc(O)c5[nH]cc(C)c65)cc4c3)ccc2[nH]1 [BIZELESIN] |  | < 0.001 µM (active) | < 0.001 µM (active) | < 0.001 µM (active) |  |  | < 0.001 µM (active) | < 0.001 µM (active) | < 0.001 µM (active)
